# Reference: patent publication US8501767B2, “Imidazopyridines and imidazopyrimidines as HIV-1 reverse transcriptase inhibitors” (CSIR, priority 2008, dated 2013)
# How the values were obtained:
# HIV-1 [1] = assay: Whole cell PBMC anti-HIV assay (human PBMCs, supernatant reverse transcriptase activity); format: cell-based; conditions: Human immunodeficiency virus 1, PBMC
# Method: Fresh human PBMCs, seronegative for HIV and HBV, were isolated from screened donors (Interstate Blood Bank, Inc. Memphis, Tenn.). Cells were pelleted/washed 2-3 times by low speed centrifugation and re-suspension in PBS to remove contaminating platelets. The Leukophoresed blood was then diluted 1:1 with Dulbecco's Phosphate Buffered Saline (DPBS) and layered over 14 mL of Lymphocyte Separation Medium (LSM; Cellgro® by Mediatech, Inc.; density 1.078+/−0.002 g/ml; Cat.#85-072-CL) in a 50 mL centrifuge tube and then centrifuged for 30 minutes at 600×g. Banded PBMCs were gently aspirated from the resulting interface and subsequently washed 2× with PBS by low speed centrifugation. […]
# For the standard PBMC assay, PHA-P stimulated cells from at least two normal donors were pooled (mixed together), diluted in fresh medium to a final concentration of 1×10^6 cells/mL, and plated in the interior wells of a 96 well round bottom microplate at 50 μl/well (5×10^4 cells/well) in a standard format developed by the Infectious Disease Research department of Southern Research Institute. Pooling (mixing) of mononuclear cells from more than one donor is used to minimize the variability observed between individual donors, which results from quantitative and qualitative differences in HIV infection and overall response to the PHA and IL-2 of primary lymphocyte populations. […]
# HIV-1 [2] = assay: Whole cell MAGI anti-HIV assay (MAGI-R5 cells, LTR-β-galactosidase reporter); format: cell-based; conditions: Human immunodeficiency virus 1, MAGI
# [3] = target: HIV-1 reverse transcriptase (Human immunodeficiency virus type 1 group M subtype B (isolate HXB2) (HIV-1), UniProt P04585); assay: Enzymatic assay against HIV-1 reverse transcriptase (sandwich-ELISA, ROCHE colorimetric reverse transcriptase kit); format: biochemical; conditions: 4-fold serial dilutions
# Method: Enzymatic Method for Determining Activity Against Reverse Transcriptase
# Biotin and DIG-labelled nucleotides are incorporated into cDNA strands polymerized on an RNA template by the action of HIV-1 reverse transcriptase. The cDNA products are bound to streptavidin-coated wells of 96-well plate inserts, and their associated DIG-moieties detected by incubation with anti-DIG antibodies conjugated to horseradish peroxidase (HRP).
# In the single concentration screen, compounds are incubated with HIV-1 reverse trancriptase and substrate and the residual enzyme activity expressed as a percentage relative to a control without inhibitor.
structure (smiles),measurement,setting,value
"Clc1ccccc1-c1nc2ccccn2c1NC1CCCCC1 [Compound 8, 2-(2-chlorophenyl)-N-cyclohexylimidazo[1,2-a]pyridin-3-amine]",IC50,HIV-1 [1],0.16 µM
"Clc1ccccc1-c1nc2cccc(Br)n2c1NC1CCCCC1 [Compound 42, 5-bromo-2-(2-chlorophenyl)-N-cyclohexylimidazo[1,2-a]pyridin-3-amine]",IC50,HIV-1 [2],3.15 µM
same,IC50,[3],4.62 µM
"Brc1ccccc1-c1nc2ccccn2c1NC1CCCCC1 [Compound 43, 2-(2-bromophenyl)-N-cyclohexylimidazo[1,2-a]pyridin-3-amine]",IC50,HIV-1 [2],2.21 µM
same,IC50,[3],10 µM
"Clc1ccccc1-c1nc2cccc(Cl)n2c1NC1CCCC1 [Compound 48, 5-chloro-2-(2-chlorophenyl)-N-cyclopentylimidazo[1,2-a]pyridin-3-amine]",IC50,[3],5.14 µM
"Cc1ccc(Cl)c(-c2nc3ccccn3c2NC2CCCCC2)c1F [Compound 74, 2-(6-chloro-2-fluoro-3-methylphenyl)-N-cyclohexylimidazo[1,2-a]pyridin-3-amine]",IC50,HIV-1 [2],2.36 µM
same,IC50,[3],90 µM
"Fc1ccc2nc(-c3ccccc3Cl)c(NC3CCCCC3)n2c1 [Compound 81, 2-(2-chlorophenyl)-N-cyclohexyl-6-fluoroimidazo[1,2-a]pyridin-3-amine]",IC50,HIV-1 [2],1.88 µM
same,IC50,[3],11.3 µM
"Clc1ccc2nc(-c3ccccc3Cl)c(NC3CCCCC3)n2c1 [Compound 82, 6-chloro-2-(2-chlorophenyl)-N-cyclohexylimidazo[1,2-a]pyridin-3-amine]",IC50,HIV-1 [2],0.84 µM
same,IC50,[3],14.5 µM
"Clc1ccc(-c2nc3ccccn3c2NC2CCCCC2)c(Cl)c1 [Compound 89, N-cyclohexyl-2-(2,4-dichlorophenyl)imidazo[1,2-a]pyridin-3-amine]",IC50,HIV-1 [2],2.95 µM
same,IC50,[3],21.8 µM
"N#Cc1ccc2nc(-c3ccccc3Cl)c(NC3CCCCC3)n2c1 [Compound 96, 2-(2-chlorophenyl)-3-(cyclohexylamino)imidazo[1,2-a]pyridine-6-carbonitrile]",IC50,HIV-1 [2],0.63 µM
same,IC50,[3],6.6 µM
"Clc1ccccc1-c1nc2ccc3ccccc3n2c1NC1CCCCC1 [Compound 97, 2-(2-chlorophenyl)-N-cyclohexylimidazo[1,2-a]quinolin-1-amine]",IC50,[3],7.52 µM
"Clc1ccccc1-c1nc2ccc(Br)cn2c1NC1CCCCC1 [Compound 99, 6-bromo-2-(2-chlorophenyl)-N-cyclohexylimidazo[1,2-a]pyridin-3-amine]",IC50,HIV-1 [2],2.19 µM
same,IC50,[3],12.2 µM
"Clc1ccccc1-c1nc2cccc(Cl)n2c1NC1CCCCC1 [Compound 104, 5-chloro-2-(2-chlorophenyl)-N-cyclohexylimidazo[1,2-a]pyridin-3-amine]",IC50,[3],3.74 µM
"N#Cc1cccc2nc(-c3ccccc3Cl)c(NC3CCCCC3)n12 [Compound 116, 2-(2-chlorophenyl)-3-(cyclohexylamino)imidazo[1,2-a]pyridine-5-carbonitrile]",IC50,[3],3.47 µM
"Clc1ccccc1-c1nc2ccccn2c1NC1CCCC1 [Compound 118, 2-(2-chlorophenyl)-N-cyclopentylimidazo[1,2-a]pyridin-3-amine]",IC50,HIV-1 [2],2.19 µM
"Cc1ccc2nc(-c3ccccc3Cl)c(NC3CCCCC3)n2c1 [Compound 163, 2-(2-chlorophenyl)-N-cyclohexyl-6-methylimidazo[1,2-a]pyridin-3-amine]",IC50,[3],5.39 µM
"Cc1cccc2nc(-c3ccccc3Cl)c(NC3CCCCC3)n12 [Compound 166, 2-(2-chlorophenyl)-N-cyclohexyl-5-methylimidazo[1,2-a]pyridin-3-amine]",IC50,[3],1.55 µM
"Cc1cccn2c(NC3CCCC3)c(-c3ccccc3Cl)nc12 [Compound 170, 2-(2-chlorophenyl)-N-cyclopentyl-8-methylimidazo[1,2-a]pyridin-3-amine]",IC50,[3],15.9 µM
"Cc1cccc2nc(-c3ccccc3Cl)c(NC3CCCC3)n12 [Compound 171, 2-(2-chlorophenyl)-N-cyclopentyl-5-methylimidazo[1,2-a]pyridin-3-amine]",IC50,[3],1.43 µM
"Cc1ccnc2c1NC(=O)c1cccnc1N2C1CC1 [Nevirapine, reference compound]",IC50,HIV-1 [2],0.1 µM
same,IC50,HIV-1 [1],0.033 µM
